Entries after “also recorded” stand apart in the source; their conditions may differ.
Tests used:
[1] = Small animal PET/CT static scans at different time points; type: in vivo, healthy female nude mice; conditions: six time points 30 min to 24 h, n = 3
Description: Based on the good preliminary in vitro stability results, we investigated the behavior of ^89Zr-AAZTHAG in vivo in healthy female nude mice (n = 3) by acquiring PET/CT images at six different time points (30 min, 3 h, 6 h, 9 h, 12 h, and 24 h), and mice were then sacrificed 24 h p.i. to perform a biodistribution study.
(§1) In order to study the biodistribution and the in vivo stability of the ^89Zr-AAZTHAG, 8 weeks old pathogen-free female athymic Nude-Foxn1nu/nu mice (Charles River Laboratories, Sulzfeld, Germany) (n = 3) were injected via a catheter in the tail vein with 2.9 ± 0.1 MBq of ^89Zr-AAZTHAG in 300 μL NaCl 0.9% solution, and imaged at different time points (30 min, 3 h, 6 h, 9 h, 12 h, 24 h) via PET/CT static acquisition using an Inveon Small Animal PET/CT scanner (Siemens, Knoxville, TN, USA).

[2] = In vitro stability of ^89Zr complexes in formulation buffer (radio-TLC / iTLC); type: physicochemical; conditions: formulation buffer (3 mM gentisic acid + 0.25 M NaOAc, pH 5.5), 37 °C
Description: (§2) Stability studies were performed on ^89Zr labeled AAZTHAS and AAZTHAG to test the effect of the pendant arm length on complex stability. The stability of the two ^89Zr-complexes was investigated by radio-TLC after incubation for 72 h at 37 °C in formulation buffer, EDTA 5 mM (1000-fold excess), and human serum (HS).
(§3) After the purification step and analysis of the radioactive complex via radio-HPLC, the stability assessment of the complex at different time points and in different solutions was carried out. ^89Zr-AAZTHAS and ^89Zr-AAZTHAG were dissolved in formulation buffer, EDTA 5 mM, and human serum in 1:5 v/v ratio and were incubated at 37 °C up to 96 h. […] At each time point the stability was evaluated by radio-iTLC (Elution solution 1) using an instant thin-layer chromatographic strip (iTLC, Agilent).

[3] = In vitro stability of ^89Zr complexes in human serum (radio-TLC / iTLC); type: in vitro ADME; conditions: for % of ^89Zr complexed over total activity: human serum (HS)
Description: as §2, §3

[4] = Ex vivo biodistribution (tracer accumulation in organs, γ-counter) 24 h p.i.; parameters: species or system female athymic Nude-Foxn1nu/nu mice; conditions: i.v. tail vein, n = 3, ± SD
Description: as §1
Biodistribution studies were also performed to assess the in vivo distribution of the ^89Zr-AAZTHAG complex and evaluate its in vivo stability. After sacrifice, the mice by anesthesia, blood, and other selected organs were collected, weighed, and the activity was measured by a γ-counter. The tracer accumulation in selected organs was expressed as a percentage of injected dose per gram of tissue (%ID/g).

[5] = In vitro stability of ^89Zr complexes in EDTA solution (transchelation challenge, radio-TLC / iTLC); type: physicochemical; parameters: dose or concentration left out as unconfirmed; conditions: 37 °C
Description: Stability studies were performed on ^89Zr labeled AAZTHAS and AAZTHAG to test the effect of the pendant arm length on complex stability. […]
as §3

With CN(O)C(=O)CCCC(=O)NC1(C)CN(C(=O)CCCC(=O)N(C)O)CCN(C(=O)CCCC(=O)N(C)O)C1 [^89Zr-AAZTHAG, metal not drawn] the “Excretion route seen in PET/CT images” value [1] was “hepatobiliary and renal excretion”, the “Signal in bones during PET acquisition (release of Zr-89)” value [1] was “low signal in bones” and the “% of ^89Zr complexed over total activity” value ([2]; Day 0) was 91.5 ± 10.6%. The “% of ^89Zr complexed over total activity” value ([2]; Day 1) was 83.0 ± 6.5%, the “% of ^89Zr complexed over total activity” value ([2]; Day 2) was 78.1 ± 13.8% and the “% of ^89Zr complexed over total activity” value ([2]; Day 3 (72 h)) was 73 ± 5%. For the same molecule, the “% of ^89Zr complexed over total activity” value ([2]; Day 3 (72 h), listed as AAZTHAG) was 73.0 ± 5.2%, the “Time for which the ^89Zr-complex is stable in HS” value ([3]; human serum) was “at least 4 h” and the “% of ^89Zr complexed over total activity” value ([3]; 37 °C, Day 0) was 92.0 ± 11.3%. The “% of ^89Zr complexed over total activity” value ([3]; 37 °C, Day 1) was 77.7 ± 18.6%, the “% of ^89Zr complexed over total activity” value ([3]; 37 °C, Day 2) was 76.9 ± 15.4% and the “% of ^89Zr complexed over total activity” value ([3]; 37 °C, Day 3 (72 h)) was 87 ± 5%. For the same molecule, the “% of ^89Zr complexed over total activity” value ([3]; 37 °C, Day 3 (72 h), listed as AAZTHAG) was 86.4 ± 5.5%, the “Radioactivity accumulated in bladder” value ([4]; Bladder) was 0.049 ± 0.010 %ID/g and the “Radioactivity accumulated in blood” value ([4]; Blood) was 0.007 ± 0.005 %ID/g. For the same molecule, the “Radioactivity accumulated in brain” value ([4]; Brain) was 0.002 ± 0.001 %ID/g, the “Radioactivity accumulated in femur” value ([4]; Femur) was 0.193 ± 0.108 %ID/g and the “Radioactivity accumulated in heart” value ([4]; Heart) was 0.010 ± 0.004 %ID/g. For the same molecule, the “Radioactivity accumulated in kidney” value ([4]; Kidney) was 0.575 ± 0.199 %ID/g, the “Radioactivity accumulated in large intestine” value ([4]; Large Intestine) was 0.020 ± 0.010 %ID/g and the “Radioactivity accumulated in liver” value ([4]; Liver) was 0.041 ± 0.010 %ID/g. The “Radioactivity accumulated in lung” value ([4]; Lung) was 0.021 ± 0.007 %ID/g, the “Radioactivity accumulated in muscle” value ([4]; Muscle) was 0.006 ± 0.002 %ID/g and the “Radioactivity accumulated in pancreas” value ([4]; Pancreas) was 0.016 ± 0.008 %ID/g. For the same molecule, the “Radioactivity accumulated in small intestine” value ([4]; Small Intestine) was 0.012 ± 0.006 %ID/g, the “Radioactivity accumulated in spleen” value ([4]; Spleen) was 0.029 ± 0.005 %ID/g and the “Radioactivity accumulated in stomach” value ([4]; Stomach) was 0.014 ± 0.005 %ID/g. The “Radioactivity accumulated in tail” value ([4]; Tail) was 0.040 ± 0.013 %ID/g, the “% of ^89Zr complexed over total activity” value ([5]; Day 0) was 30.6 ± 30.3% and the “% of ^89Zr complexed over total activity” value ([5]; Day 1) was 4.4 ± 3.9%. The “% of ^89Zr complexed over total activity” value ([5]; Day 2) was 2.4 ± 0.1% and the “% of ^89Zr complexed over total activity” value ([5]; Day 3) was 3.2 ± 2.6%.
With CN(O)C(=O)CCC(=O)NC1(C)CN(C(=O)CCC(=O)N(C)O)CCN(C(=O)CCC(=O)N(C)O)C1 [^89Zr-AAZTHAS, metal not drawn] the “% of ^89Zr complexed over total activity” value ([2]; Day 0) was 71.0%, the “% of ^89Zr complexed over total activity” value ([2]; Day 1) was 63.3% and the “% of ^89Zr complexed over total activity” value ([2]; Day 2) was 62.3%. The “% of ^89Zr complexed over total activity” value ([2]; Day 3 (72 h)) was 42%, the “% of ^89Zr complexed over total activity” value ([3]; 37 °C, Day 0) was 71.0% and the “% of ^89Zr complexed over total activity” value ([3]; 37 °C, Day 1) was 76.8%. For the same molecule, the “% of ^89Zr complexed over total activity” value ([3]; 37 °C, Day 2) was 59.2%, the “% of ^89Zr complexed over total activity” value ([3]; 37 °C, Day 3 (72 h)) was 46% and the “Behaviour of the complex on incubation in HS (precipitation)” value ([3]; human serum, 37 °C) was “tends to precipitate over time; also recorded: precipitates”. The “% of ^89Zr complexed over total activity” value ([5]; Day 0) was 15.1%, the “% of ^89Zr complexed over total activity” value ([5]; Day 1) was 1.0% and the “% of ^89Zr complexed over total activity” value ([5]; Day 2) was 1.6%.

— article PMC8512011, “A Semi Rigid Novel Hydroxamate AMPED-Based Ligand for ^89Zr PET Imaging” (Molecules, 2021)
